Experimental data as given in ChEMBL document CHEMBL3991601, “The target landscape of clinical kinase drugs” (Science, 2017).
Activity calls are given as the source filed them.

Key:
[1] = target: T1, Mitogen-activated protein kinase kinase kinase kinase 2 (Homo sapiens, UniProt Q12851)
T1 sequence (Q12851 whole entry): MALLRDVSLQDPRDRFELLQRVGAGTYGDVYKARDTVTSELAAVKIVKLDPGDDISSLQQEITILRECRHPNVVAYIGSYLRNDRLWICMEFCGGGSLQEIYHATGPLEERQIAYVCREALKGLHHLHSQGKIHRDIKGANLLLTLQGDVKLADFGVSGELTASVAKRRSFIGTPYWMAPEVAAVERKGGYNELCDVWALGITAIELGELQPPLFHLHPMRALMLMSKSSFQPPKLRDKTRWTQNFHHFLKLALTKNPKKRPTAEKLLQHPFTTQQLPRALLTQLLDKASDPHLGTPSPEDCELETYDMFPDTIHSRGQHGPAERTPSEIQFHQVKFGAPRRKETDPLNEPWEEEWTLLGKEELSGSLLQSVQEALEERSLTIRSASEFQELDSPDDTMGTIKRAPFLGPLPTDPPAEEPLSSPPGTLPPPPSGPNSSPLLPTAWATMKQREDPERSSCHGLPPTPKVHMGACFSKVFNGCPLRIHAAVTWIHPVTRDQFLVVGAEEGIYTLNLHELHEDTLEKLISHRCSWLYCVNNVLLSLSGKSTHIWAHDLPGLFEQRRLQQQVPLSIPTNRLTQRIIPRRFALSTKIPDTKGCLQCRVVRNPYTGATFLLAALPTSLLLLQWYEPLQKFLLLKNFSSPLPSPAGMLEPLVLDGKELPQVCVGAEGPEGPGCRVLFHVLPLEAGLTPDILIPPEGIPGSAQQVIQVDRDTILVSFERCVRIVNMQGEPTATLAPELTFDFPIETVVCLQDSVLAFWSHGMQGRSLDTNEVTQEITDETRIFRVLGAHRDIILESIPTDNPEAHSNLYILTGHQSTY

[2] = target: T2, Serine/threonine-protein kinase ULK1 (Homo sapiens, UniProt O75385)
T2 sequence (O75385 whole entry): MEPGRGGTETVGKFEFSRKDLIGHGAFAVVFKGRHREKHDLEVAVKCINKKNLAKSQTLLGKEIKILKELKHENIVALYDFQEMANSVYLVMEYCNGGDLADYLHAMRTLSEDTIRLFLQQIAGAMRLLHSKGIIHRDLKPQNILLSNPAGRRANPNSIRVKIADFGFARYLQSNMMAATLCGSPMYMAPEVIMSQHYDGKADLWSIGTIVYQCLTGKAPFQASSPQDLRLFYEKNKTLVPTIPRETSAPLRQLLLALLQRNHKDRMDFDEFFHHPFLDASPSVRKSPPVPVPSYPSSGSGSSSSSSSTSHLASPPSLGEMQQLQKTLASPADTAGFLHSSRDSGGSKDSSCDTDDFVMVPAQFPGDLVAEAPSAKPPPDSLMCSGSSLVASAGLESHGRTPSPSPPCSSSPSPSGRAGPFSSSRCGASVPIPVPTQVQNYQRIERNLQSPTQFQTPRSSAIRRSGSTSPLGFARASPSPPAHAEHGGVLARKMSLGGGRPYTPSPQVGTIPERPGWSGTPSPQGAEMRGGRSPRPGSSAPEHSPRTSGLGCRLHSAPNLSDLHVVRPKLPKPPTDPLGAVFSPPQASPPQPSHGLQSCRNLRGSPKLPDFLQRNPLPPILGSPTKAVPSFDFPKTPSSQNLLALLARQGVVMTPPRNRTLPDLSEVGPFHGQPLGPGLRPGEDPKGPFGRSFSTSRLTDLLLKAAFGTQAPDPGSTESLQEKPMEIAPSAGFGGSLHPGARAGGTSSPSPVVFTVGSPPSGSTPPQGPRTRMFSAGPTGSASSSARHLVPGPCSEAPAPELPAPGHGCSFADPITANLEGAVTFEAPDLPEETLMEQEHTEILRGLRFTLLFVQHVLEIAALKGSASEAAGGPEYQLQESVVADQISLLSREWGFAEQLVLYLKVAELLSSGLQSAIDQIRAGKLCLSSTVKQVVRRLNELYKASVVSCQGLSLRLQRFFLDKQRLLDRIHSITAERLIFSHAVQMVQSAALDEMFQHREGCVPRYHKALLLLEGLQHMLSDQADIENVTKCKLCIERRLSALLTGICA

[3] = target: T3, STE20-related kinase adapter protein alpha (Homo sapiens, UniProt Q7RTN6)
T3 sequence (Q7RTN6 whole entry): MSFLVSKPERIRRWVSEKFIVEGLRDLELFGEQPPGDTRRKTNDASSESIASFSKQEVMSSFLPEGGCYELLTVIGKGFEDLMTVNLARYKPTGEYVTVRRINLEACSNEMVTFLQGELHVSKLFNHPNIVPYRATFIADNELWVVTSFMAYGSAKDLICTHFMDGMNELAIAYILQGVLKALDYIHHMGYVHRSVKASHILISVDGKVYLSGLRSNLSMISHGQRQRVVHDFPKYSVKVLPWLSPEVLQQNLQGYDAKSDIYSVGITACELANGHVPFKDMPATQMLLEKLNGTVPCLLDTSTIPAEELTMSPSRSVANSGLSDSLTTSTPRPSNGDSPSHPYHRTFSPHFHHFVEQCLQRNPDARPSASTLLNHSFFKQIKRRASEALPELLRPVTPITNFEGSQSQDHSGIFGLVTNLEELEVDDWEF

Rab-like protein 3 = target: T4, Rab-like protein 3 (Homo sapiens, UniProt Q5HYI8)
T4 sequence (Q5HYI8 whole entry): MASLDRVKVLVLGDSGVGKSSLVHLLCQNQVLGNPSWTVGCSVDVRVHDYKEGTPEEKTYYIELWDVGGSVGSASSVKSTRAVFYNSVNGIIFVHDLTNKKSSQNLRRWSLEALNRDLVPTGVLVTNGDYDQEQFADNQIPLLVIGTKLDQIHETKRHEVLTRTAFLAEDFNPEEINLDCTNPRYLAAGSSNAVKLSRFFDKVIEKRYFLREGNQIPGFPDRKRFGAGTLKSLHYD

[4] = target: G protein-coupled receptor kinase 6 (Homo sapiens, UniProt P43250)
[5] = target: T5, Ras-related protein Rab-10 (Homo sapiens, UniProt P61026)
T5 sequence (P61026 whole entry): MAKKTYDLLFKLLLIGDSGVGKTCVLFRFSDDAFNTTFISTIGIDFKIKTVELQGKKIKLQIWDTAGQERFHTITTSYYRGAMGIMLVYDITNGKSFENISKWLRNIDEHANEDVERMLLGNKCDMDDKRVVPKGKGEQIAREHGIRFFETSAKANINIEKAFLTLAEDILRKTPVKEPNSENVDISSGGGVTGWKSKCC

[6] = target: RAC-alpha serine/threonine-protein kinase (Homo sapiens, UniProt P31749)
[7] = target: Ribosomal protein S6 kinase alpha-1 (Homo sapiens, UniProt Q15418)
[8] = target: MAP/microtubule affinity-regulating kinase 3 (Homo sapiens, UniProt P27448)
Note: in the data inactive means no Kd found up to 30 µM.

MAP/microtubule affinity-regulating kinase 3, sequence (P27448 whole entry): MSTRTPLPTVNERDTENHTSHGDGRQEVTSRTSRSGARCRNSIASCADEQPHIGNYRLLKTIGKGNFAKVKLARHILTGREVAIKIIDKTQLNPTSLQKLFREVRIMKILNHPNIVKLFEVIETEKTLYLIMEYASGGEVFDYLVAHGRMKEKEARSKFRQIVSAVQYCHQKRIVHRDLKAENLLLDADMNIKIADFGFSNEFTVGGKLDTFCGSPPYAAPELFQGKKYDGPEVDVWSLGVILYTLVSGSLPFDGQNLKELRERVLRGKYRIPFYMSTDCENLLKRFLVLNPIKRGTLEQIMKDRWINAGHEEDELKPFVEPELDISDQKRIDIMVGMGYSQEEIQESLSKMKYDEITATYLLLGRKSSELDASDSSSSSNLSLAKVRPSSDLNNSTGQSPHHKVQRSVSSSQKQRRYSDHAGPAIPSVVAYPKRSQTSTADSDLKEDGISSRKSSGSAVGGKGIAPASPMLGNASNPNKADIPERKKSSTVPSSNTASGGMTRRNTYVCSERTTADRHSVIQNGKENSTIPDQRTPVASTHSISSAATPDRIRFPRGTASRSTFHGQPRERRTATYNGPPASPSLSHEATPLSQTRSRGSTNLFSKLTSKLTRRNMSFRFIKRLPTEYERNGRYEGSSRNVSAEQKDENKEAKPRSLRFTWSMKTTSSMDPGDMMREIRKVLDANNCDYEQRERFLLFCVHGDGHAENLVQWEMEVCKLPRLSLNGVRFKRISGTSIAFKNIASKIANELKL
G protein-coupled receptor kinase 6, sequence (P43250 whole entry): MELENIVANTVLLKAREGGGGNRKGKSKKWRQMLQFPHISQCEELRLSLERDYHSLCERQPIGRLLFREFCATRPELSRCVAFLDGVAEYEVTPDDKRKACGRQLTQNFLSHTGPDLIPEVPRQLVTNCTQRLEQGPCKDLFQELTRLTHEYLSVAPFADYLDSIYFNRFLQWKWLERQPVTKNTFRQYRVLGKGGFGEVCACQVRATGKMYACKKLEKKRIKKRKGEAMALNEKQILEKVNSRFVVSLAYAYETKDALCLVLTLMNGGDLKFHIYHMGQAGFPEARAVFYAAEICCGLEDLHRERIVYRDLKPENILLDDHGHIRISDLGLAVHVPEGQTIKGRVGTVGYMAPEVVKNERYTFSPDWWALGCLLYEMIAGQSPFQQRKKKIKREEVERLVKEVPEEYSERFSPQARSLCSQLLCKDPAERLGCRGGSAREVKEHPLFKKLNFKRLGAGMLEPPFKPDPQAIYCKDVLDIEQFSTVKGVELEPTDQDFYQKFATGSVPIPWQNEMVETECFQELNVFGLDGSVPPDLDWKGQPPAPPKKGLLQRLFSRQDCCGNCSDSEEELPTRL
RAC-alpha serine/threonine-protein kinase, sequence (P31749 whole entry): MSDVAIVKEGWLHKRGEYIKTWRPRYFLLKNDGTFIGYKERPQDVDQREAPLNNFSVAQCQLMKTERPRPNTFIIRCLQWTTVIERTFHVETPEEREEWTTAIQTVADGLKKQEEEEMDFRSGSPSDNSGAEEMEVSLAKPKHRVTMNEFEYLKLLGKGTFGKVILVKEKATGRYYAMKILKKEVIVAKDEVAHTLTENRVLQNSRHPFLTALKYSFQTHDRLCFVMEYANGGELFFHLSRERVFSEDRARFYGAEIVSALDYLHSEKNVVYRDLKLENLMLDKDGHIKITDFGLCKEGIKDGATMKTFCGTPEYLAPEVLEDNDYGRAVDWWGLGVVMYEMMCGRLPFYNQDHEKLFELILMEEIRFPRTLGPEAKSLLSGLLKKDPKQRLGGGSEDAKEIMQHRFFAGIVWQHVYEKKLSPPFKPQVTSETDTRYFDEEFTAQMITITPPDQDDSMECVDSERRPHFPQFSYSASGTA
Ribosomal protein S6 kinase alpha-1, sequence (Q15418 whole entry): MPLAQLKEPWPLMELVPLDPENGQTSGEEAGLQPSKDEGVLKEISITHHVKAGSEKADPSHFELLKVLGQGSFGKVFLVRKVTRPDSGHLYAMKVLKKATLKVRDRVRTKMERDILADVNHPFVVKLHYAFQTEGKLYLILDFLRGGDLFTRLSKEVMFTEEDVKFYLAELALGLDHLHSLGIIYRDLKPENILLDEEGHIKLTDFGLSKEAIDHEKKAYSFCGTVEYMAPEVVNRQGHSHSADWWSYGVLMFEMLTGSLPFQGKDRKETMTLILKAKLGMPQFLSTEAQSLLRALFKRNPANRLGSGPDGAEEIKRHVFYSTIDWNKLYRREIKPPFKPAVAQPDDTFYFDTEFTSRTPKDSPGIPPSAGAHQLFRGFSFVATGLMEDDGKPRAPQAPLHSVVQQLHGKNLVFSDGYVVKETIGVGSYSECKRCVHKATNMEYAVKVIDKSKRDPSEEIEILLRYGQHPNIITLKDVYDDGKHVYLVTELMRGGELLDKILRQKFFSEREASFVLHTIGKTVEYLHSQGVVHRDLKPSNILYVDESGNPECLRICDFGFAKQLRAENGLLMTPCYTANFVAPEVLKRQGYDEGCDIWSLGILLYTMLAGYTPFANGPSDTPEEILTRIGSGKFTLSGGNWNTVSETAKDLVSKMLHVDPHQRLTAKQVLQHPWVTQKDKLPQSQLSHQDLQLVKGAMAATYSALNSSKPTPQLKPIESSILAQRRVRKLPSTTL

| SMILES | Kd [1] | Kd [2] | Kd [3] | Kd (Rab-like protein 3) | Kd [4] | Kd [5] | Kd [6] | Kd [7] | Kd [8] |
| --- | --- | --- | --- | --- | --- | --- | --- | --- | --- |
| CCn1cc(-c2ccnc3[nH]c(-c4cccc(CN(C)C)c4)cc23)c(-c2ccc(NC(=O)N(C)C)cc2)n1 [GSK-1070916] | > 30 µM (inactive) | > 30 µM (inactive) | > 30 µM (inactive) | > 30 µM (inactive) | > 30 µM (inactive) | > 30 µM (inactive) | > 30 µM (inactive) |  |  |
| CO[C@H]1C[C@@H]2CC[C@@H](C)[C@@](O)(O2)C(=O)C(=O)N2CCCC[C@H]2C(=O)O[C@H]([C@H](C)C[C@@H]2CC[C@@H](O)[C@H](OC)C2)CC(=O)[C@H](C)/C=C(\C)[C@@H](O)[C@@H](OC)C(=O)[C@H](C)C[C@H](C)/C=C/C=C/C=C/1C [SIROLIMUS] | > 30 µM (inactive) | > 30 µM (inactive) | > 30 µM (inactive) |  | > 30 µM (inactive) | > 30 µM (inactive) | > 30 µM (inactive) | > 30 µM (inactive) | > 30 µM (inactive) |
| COc1cc(Nc2ncc3c(n2)-c2ccc(Cl)cc2C(c2c(F)cccc2OC)=NC3)ccc1C(=O)O [ALISERTIB] |  | > 30 µM (inactive) | > 30 µM (inactive) | > 30 µM (inactive) | > 30 µM (inactive) | 1.35 µM |  | > 30 µM (inactive) |  |
| CCS(=O)(=O)c1cccc(-c2cc(C(=O)NC3CCN(C)CC3)c(C)c3[nH]c4ncc(C)cc4c23)c1 [TAK-901] | > 30 µM (inactive) | > 30 µM (inactive) | > 30 µM (inactive) | > 30 µM (inactive) | 1.19 µM | > 30 µM (inactive) | > 30 µM (inactive) |  |  |
| Cc1cc(C(=O)NOCCO)c(Nc2ccc(I)cc2F)n(C)c1=O [AZD-8330] | > 30 µM (inactive) | > 30 µM (inactive) | > 30 µM (inactive) |  | > 30 µM (inactive) | > 30 µM (inactive) | > 30 µM (inactive) | > 30 µM (inactive) | > 30 µM (inactive) |
| NC1(c2ccc(-c3nc4ccn5c(=O)[nH]nc5c4cc3-c3ccccc3)cc2)CCC1 [MK-2206] | > 30 µM (inactive) | > 30 µM (inactive) | > 30 µM (inactive) | > 30 µM (inactive) | > 30 µM (inactive) | > 30 µM (inactive) |  | > 30 µM (inactive) | > 30 µM (inactive) |
| CC(=O)NCC(=O)N1[C@@H]2CC[C@H]1c1ccc(Nc3ncc(C(F)(F)F)c(NC4CCC4)n3)cc12 [PF-03814735] |  | 0.028 µM (active) | > 30 µM (inactive) | > 30 µM (inactive) | > 30 µM (inactive) | > 30 µM (inactive) |  | 2.41 µM (active) |  |
| CNC(=O)c1ccccc1Sc1ccc2c(/C=C/c3ccccn3)n[nH]c2c1 [AXITINIB] |  |  | > 30 µM (inactive) |  | > 30 µM (inactive) | > 30 µM (inactive) |  |  |  |
| C[C@@H](Oc1cc(-n2cnc3ccc(CN4CCN(C)CC4)cc32)sc1C(N)=O)c1ccccc1C(F)(F)F [GSK-461364] |  |  | > 30 µM (inactive) | > 30 µM (inactive) | > 30 µM (inactive) | > 30 µM (inactive) |  |  |  |
| Cn1cnc2c(F)c(Nc3ccc(Br)cc3F)c(C(=O)NOCCO)cc21 [BINIMETINIB] | > 30 µM (inactive) | > 30 µM (inactive) | > 30 µM (inactive) | > 30 µM (inactive) |  | > 30 µM (inactive) | > 30 µM (inactive) | > 30 µM (inactive) | > 30 µM (inactive) |
| CCOc1cc2ncc(C#N)c(Nc3ccc(F)c(Cl)c3)c2cc1NC(=O)/C=C/CN(C)C [PELITINIB] | 2.28 µM (active) | > 30 µM (inactive) | > 30 µM (inactive) | > 30 µM (inactive) |  | > 30 µM (inactive) | > 30 µM (inactive) | > 30 µM (inactive) | > 30 µM (inactive) |
| O=c1[nH]ccc2cc(OC3CCNCC3)ccc12 [SAR-407899 FREE BASE] | > 30 µM (inactive) | > 30 µM (inactive) | > 30 µM (inactive) | > 30 µM (inactive) |  | > 30 µM (inactive) | > 30 µM (inactive) | > 30 µM (inactive) | > 30 µM (inactive) |
| CNC(=O)c1cccc2cc(Oc3ccnc4cc(OCC5(N)CC5)c(OC)cc34)ccc12 [LUCITANIB] | > 30 µM (inactive) | > 30 µM (inactive) | > 30 µM (inactive) |  | > 30 µM (inactive) | > 30 µM (inactive) | > 30 µM (inactive) | > 30 µM (inactive) | > 30 µM (inactive) |
| C[C@@H](NC(=O)c1ncnc(N)c1Cl)c1ncc(C(=O)Nc2cc(C(F)(F)F)c(Cl)cn2)s1 [TOVORAFENIB] | > 30 µM (inactive) | > 30 µM (inactive) | > 30 µM (inactive) | > 30 µM (inactive) |  | > 30 µM (inactive) | > 30 µM (inactive) | > 30 µM (inactive) | > 30 µM (inactive) |
| O=C(NOCCO)c1cc(CN2OCCCC2=O)c(F)c(F)c1Nc1ccc(I)cc1F [RO-4987655] |  |  | > 30 µM (inactive) | > 30 µM (inactive) | > 30 µM (inactive) | > 30 µM (inactive) |  |  |  |
| NC(=O)c1c(OCc2c(F)cc(Br)cc2F)nsc1NC(=O)NCCCCN1CCCC1 [OSI-632] |  |  | > 30 µM (inactive) | > 30 µM (inactive) | > 30 µM (inactive) | > 30 µM (inactive) |  |  |  |
| O=C(Nc1c[nH]nc1-c1nc2cc(CN3CCOCC3)ccc2[nH]1)NC1CC1 [AT-9283] | > 30 µM (inactive) | > 30 µM (inactive) | > 30 µM (inactive) | > 30 µM (inactive) | 13.6 µM | > 30 µM (inactive) | > 30 µM (inactive) |  |  |
